Experimental data: patent US7511145B2 (Genelabs Technologies, Inc., priority 2003, dated 2009)

Target: T1, HCV-NS5b (Hepatitis C virus genotype 1b, UniProt Q9WMX2)
T1 construct: (His)6 (C); made in house; host or cells: XL-1 cells (E. coli), IPTG-inducible plasmid, nickel-NTA purification
Experiment: HCV-NS5b enzyme assay (incorporation of radiolabeled UTP)
Assay type: biochemical
Conditions: for inhibition at 33 µM / % inh@33: enzyme inhibition at compound concentration of 33 uM; for inhibition at 100 µM: read-out: % inh@100, enzyme inhibition at compound concentration of 100 uM; for % inh@100: enzyme inhibition at compound concentration of 100 uM
How it was run: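 His6-tagged NS5b lacking the C-terminal 21 residues, expressed in XL-1 and Ni-NTA purified. Reaction at pH 7.5 with 5 mM MgCl2, 10 μM each NTP including [3H]-UTP and biotinylated HCV heteropolymeric template, 2 h at 37° C; SPA read-out; % inhibition at 100 and 33 uM versus no-compound control, background subtracted.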

SMILES: COc1ccc(-c2ccc(Cl)cc2)c(-c2ccc3cc(-c4[nH]c5cc(C(=O)O)ccc5c4C4CCCCC4)ccc3n2)c1 [Compound 536, 2-[2-(4′-Chloro-4-methoxy-biphen-2-yl)-quinolin-6-yl]-3-cyclohexyl-1H-indole-6-carboxylic acid]
- inhibition at 33 µM: 97.5%
- inhibition at 100 µM: 98.9%

SMILES: COc1ccc(-c2ccc(Cl)cc2)c(-c2ccc3cc(-c4nc5cc(C(=O)O)cnc5n4C4CCCCC4)ccc3n2)c1 [Compound 537, 2-[2-(4′-chloro-4-methoxy-biphen-2-yl)-quinolin-6-yl]-3-cyclohexyl-3H-imidazo[4,5-b]pyridine-6-carboxylic acid]
- inhibition at 33 µM: 100%
- inhibition at 100 µM: 99.8%

SMILES: CCOC(=O)c1cnc2c(c1)nc(-c1ccc3nc(-c4cc(O)ccc4-c4ccc(Cl)cc4)ccc3c1)n2C1CCCCC1 [Compound 538, 2-[2-(4′-chloro-4-hydroxy-biphen-2-yl)-quinolin-6-yl]-3-cyclohexyl-3H-imidazo[4,5-b]pyridine-6-carboxylic acid Ethyl Ester]
- inhibition at 33 µM: 56.6%
- inhibition at 100 µM: 72.8%

SMILES: O=C(O)c1cnc2c(c1)nc(-c1ccc3nc(-c4cc(C(=O)N5CCCC5)ccc4-c4ccc(Cl)cc4)ccc3c1)n2C1CCCCC1 [Compound 539, 2-{2-[4′-chloro-4-(pyrrolidine-1-carbonyl)-biphen-2-yl]-quinolin-6-yl}-3-cyclohexyl-3H-imidazo[4,5-b]pyridine-6-carboxylic acid]
- inhibition at 33 µM: 104%
- inhibition at 100 µM: 102%

SMILES: O=C(c1ccc(-c2ccc(Cl)cc2)c(-c2ccc3cc(-c4nc5ccccc5n4C4CCCCC4)ccc3n2)c1)N1CCCC1 [Compound 540]
- % inh@33: 91.13%
- % inh@100: 95.05%

SMILES: NC(=O)CC[C@H](NC(=O)c1ccc2c(c1)nc(-c1ccc3nc(-c4ccccc4)cnc3c1)n2C1CCCCC1)C(=O)O [Compound 541, 4-Carbamoyl-2-{[1-cyclohexyl-2-(2-phenyl-quinoxalin-6-yl)-1H-benzoimidazole-5-carbonyl]-amino}-butyric acid]
- inhibition at 33 µM: 76.1%
- inhibition at 100 µM: 98.1%

SMILES: NC(=O)[C@H](Cc1ccccc1)NC(=O)c1ccc2cc(-c3nc4cc(C(=O)O)ccc4n3C3CCCCC3)ccc2n1 [Compound 542, 2-[2-(1-Carbamoyl-2-phenylethylcarbamoyl)quinolin-6-yl]-1-cyclohexyl-1H-benzimidazole-5-carboxylic acid]
- inhibition at 33 µM: 81.1%
- inhibition at 100 µM: 98.6%

SMILES: COc1ccc(-c2ccc(Cl)cc2)c(-c2ccc3cc(-c4nc5cc(C(=O)O)ccc5n4C4CCC(C)CC4)ccc3n2)c1 (stereo not drawn) [Compound 543, 2-[2-(4′-chloro-4-methoxy-biphen-2-yl)-quinolin-6-yl]-1-(4-methyl-cyclohexyl)-1H-benzoimidazole-5-carboxylic acid]
- inhibition at 33 µM: 102%
- inhibition at 100 µM: 102%

SMILES: COc1ccc(-c2ccccc2F)c(-c2ccc3cc(-c4nc5cc(C(=O)O)ccc5n4C4CCCCC4)ccc3n2)c1 [Compound 544, 1-Cyclohexyl-2-[2-(2′-fluoro-4-methoxy-biphen-2-yl)-quinolin-6-yl]-1H-benzoimidazole-5-carboxylic acid]
- inhibition at 33 µM: 102%
- inhibition at 100 µM: 100%

SMILES: COc1ccc(C2CCCCC2)c(-c2ccc3cc(-c4nc5cc(C(=O)O)ccc5n4C4CCCCC4)ccc3n2)c1 [Compound 545, 1-Cyclohexyl-2-[2-(2-cyclohexyl-5-methoxy-phenyl)-quinolin-6-yl]-1H-benzoimidazole-5-carboxylic acid]
- inhibition at 33 µM: 99.2%
- inhibition at 100 µM: 101%

SMILES: CN(C(=O)c1ccc2cc(-c3nc4cc(C(=O)O)ccc4n3C3CCCCC3)ccc2n1)c1ccc(Cl)cc1 [Compound 546]
- inhibition at 33 µM: 95.3%
- inhibition at 100 µM: 102%

SMILES: COc1ccc(-c2ccc(Cl)cc2)c(-c2ccc3cc(-c4nc5cc(C(=O)O)ccc5n4C4CCC(C)CC4)ccc3n2)c1 (stereo not drawn) [Compound 547, 2-[2-(4′-chloro-4-methoxy-biphen-2-yl)-quinolin-6-yl]-1-(4-methyl-cyclohexyl)-1H-benzoimidazole-5-carboxylic acid]
- % inh@33 (33 µM): 102.71%
- % inh@100 (100 µM): 101.82%

SMILES: COc1ccc(-c2ccccc2C)c(-c2ccc3cc(-c4nc5cc(C(=O)O)ccc5n4C4CCCCC4)ccc3n2)c1 [Compound 548]
- inhibition at 33 µM: 103%
- inhibition at 100 µM: 101%

SMILES: O=C(O)c1ccc2c(c1)nc(-c1ccc3nc(-c4cc(C(=O)N5CCCC5)ccc4-c4ccc(F)cc4)ccc3c1)n2C1CCCCC1 [Compound 549, 1-Cyclohexyl-2-{2-[4′-fluoro-4-(pyrrolidine-1-carbonyl)biphen-2-yl]quinolin-6-yl}-1H-benzimidazole-5-carboxylic acid]
- inhibition at 33 µM: 100%
- inhibition at 100 µM: 102%

SMILES: CC(C)N(C(=O)c1ccc2cc(-c3nc4cc(C(=O)O)ccc4n3C3CCCCC3)ccc2n1)c1ccc(Cl)cc1 [Compound 550, 2-{2-[(4-Chlorophenyl)isopropylcarbamoyl]quinolin-6-yl}-1-cyclohexyl-1H-benzimidazole-5-carboxylic acid]
- inhibition at 33 µM: 99.1%
- inhibition at 100 µM: 102%

SMILES: O=C(O)c1ccc2c(c1)nc(-c1ccc3nc(C(=O)N(c4ccc(Cl)cc4)C4CCCCC4)ccc3c1)n2C1CCCCC1 [Compound 551, 2-{2-[(4-Chlorophenyl)cyclohexylcarbamoyl]quinolin-6-yl}-1-cyclohexyl-1H-benzimidazole-5-carboxylic acid]
- inhibition at 33 µM: 87.5%
- inhibition at 100 µM: 95.7%

SMILES: COc1ccc(-c2ccccc2OC)c(-c2ccc3cc(-c4nc5cc(C(=O)O)ccc5n4C4CCCCC4)ccc3n2)c1 [Compound 552, 1-Cyclohexyl-2-[2-(4,2′-dimethoxy-biphen-2-yl)-quinolin-6-yl]-1H-benzoimidazole-5-carboxylic acid]
- inhibition at 33 µM: 101%
- inhibition at 100 µM: 101%

SMILES: COc1ccc(-c2ccc(Cl)cc2)c(-c2ccc3cc(-c4nc5cc(C(=O)O)ccc5n4C4CC(C)CC(C)(C)C4)ccc3n2)c1 (stereo not drawn) [Compound 555, 2-[2-(4′-chloro-4-methoxy-biphen-2-yl)-quinolin-6-yl]-1-(3,3,5-trimethyl-cyclohexyl)-1H-benzoimidazole-5-carboxylic acid]
- inhibition at 33 µM: 101%
- inhibition at 100 µM: 101%

SMILES: COc1ccc(-c2ccc(Cl)cc2)c(-c2ccc3cc(-c4nc5cc(C(=O)O)ccc5n4C4CCCCC4C)ccc3n2)c1 (stereo not drawn) [Compound 556, 2-[2-(4′-Chloro-4-methoxy-biphen-2-yl)-quinolin-6-yl]-1-(2-methyl-cyclohexyl)-1H-benzoimidazole-5-carboxylic acid]
- inhibition at 33 µM: 103%
- inhibition at 100 µM: 102%

SMILES: CCc1ccc(-c2ccc(OC)cc2-c2ccc3cc(-c4nc5cc(C(=O)O)ccc5n4C4CCCCC4)ccc3n2)cc1 [Compound 557, 1-Cyclohexyl-2-[2-(4′-ethyl-4-methoxy-biphen-2-yl)-quinolin-6-yl]-1H-benzoimidazole-5-carboxylic acid]
- inhibition at 33 µM: 103%
- inhibition at 100 µM: 101%

SMILES: COc1ccc(-c2ccc(Cl)cc2)c(-c2ccc3cc(-c4nc5cc(C(=O)O)ccc5n4C4CCNCC4)ccc3n2)c1 [Compound 558, 2-[2-(4′-Chloro-4-methoxy-biphen-2-yl)-quinolin-6-yl]-1-piperidin-4-yl-1H-benzoimidazole-5-carboxylic acid]
- inhibition at 33 µM: 32.5%
- inhibition at 100 µM: 77.3%
